Measured values as given in the NIST ThermoML archive (doi:10.1016/j.fluid.2018.09.026).
Values joined by “and” are separate entries in the source; they are usually repeats but may differ in a detail not shown here. Identical values can stand only once.

Details: Liquid; for viscosity: Vibrating wire viscometry; for mass density: Vibrating tube method

OCCOCCOCCO [triethylene glycol]
Details	mass density	viscosity
303 K, 65190 kPa	–	48.95 mPa·s
303 K, 66350 kPa	–	49.26 mPa·s
303.15 K, 100 kPa	1115.2 kg/m3 and 1115.1 kg/m3	–
303.15 K, 630 kPa	1115.4 kg/m3	–
303.15 K, 1130 kPa	1115.6 kg/m3	–
303.15 K, 1620 kPa	1115.9 kg/m3	–
303.15 K, 2140 kPa	1116.1 kg/m3	–
303.15 K, 3070 kPa	1116.5 kg/m3	–
303.15 K, 5080 kPa	1117.4 kg/m3	–
303.15 K, 6960 kPa	1118.3 kg/m3	–
303.15 K, 9960 kPa	1119.6 kg/m3	–
303.15 K, 14840 kPa	1121.7 kg/m3	–
303.15 K, 19750 kPa	1123.8 kg/m3	–
303.15 K, 24670 kPa	1125.9 kg/m3	–
303.15 K, 29570 kPa	1127.9 kg/m3	–
303.15 K, 34500 kPa	1129.9 kg/m3	–
303.15 K, 39360 kPa	1131.9 kg/m3	–
303.15 K, 44300 kPa	1133.8 kg/m3	–
303.15 K, 49190 kPa	1135.7 kg/m3	–
303.15 K, 54090 kPa	1137.6 kg/m3	–
303.15 K, 58850 kPa	1139.3 kg/m3	–
303.15 K, 63890 kPa	1141.2 kg/m3	–
303.15 K, 68750 kPa	1142.9 kg/m3	–
313.15 K, 100 kPa	1107.4 kg/m3	–
313.15 K, 670 kPa	1107.6 kg/m3	–
313.15 K, 1130 kPa	1107.9 kg/m3	–
313.15 K, 1600 kPa	1108.1 kg/m3	–
313.15 K, 2080 kPa	1108.3 kg/m3	–
313.15 K, 3100 kPa	1108.8 kg/m3	–
313.15 K, 5030 kPa	1109.7 kg/m3	–
313.15 K, 7010 kPa	1110.6 kg/m3	–
313.15 K, 10010 kPa	1112 kg/m3	–
313.15 K, 14880 kPa	1114.2 kg/m3	–
313.15 K, 19750 kPa	1116.4 kg/m3	–
313.15 K, 24680 kPa	1118.6 kg/m3	–
313.15 K, 29560 kPa	1120.6 kg/m3	–
313.15 K, 34510 kPa	1122.7 kg/m3	–
313.15 K, 39330 kPa	1124.7 kg/m3	–
313.15 K, 44290 kPa	1126.7 kg/m3	–
313.15 K, 49180 kPa	1128.6 kg/m3	–
313.15 K, 54160 kPa	1130.6 kg/m3	–
313.15 K, 59000 kPa	1132.4 kg/m3	–
313.15 K, 63910 kPa	1134.3 kg/m3	–
313.15 K, 68840 kPa	1136 kg/m3	–
313.26 K, 170 kPa	–	18.68 mPa·s [middle of 4 runs]
313.26 K, 510 kPa	–	18.97 mPa·s and 18.84 mPa·s and 18.73 mPa·s
313.26 K, 520 kPa	–	18.83 mPa·s
313.26 K, 930 kPa	–	18.88 mPa·s [middle of 6 runs]
313.26 K, 4460 kPa	–	19.45 mPa·s
313.26 K, 4470 kPa	–	19.52 mPa·s [middle of 4 runs]
313.26 K, 9660 kPa	–	20.02 mPa·s
313.26 K, 9670 kPa	–	20.2 mPa·s and 20.18 mPa·s
313.26 K, 19980 kPa	–	22.07 mPa·s and 21.92 mPa·s
313.26 K, 19990 kPa	–	21.69 mPa·s
313.26 K, 29400 kPa	–	23.4 mPa·s and 23.28 mPa·s
313.26 K, 29410 kPa	–	23.3 mPa·s
313.26 K, 29530 kPa	–	23.21 mPa·s
313.26 K, 29540 kPa	–	23.53 mPa·s
313.26 K, 29550 kPa	–	23.54 mPa·s
313.26 K, 29570 kPa	–	23.18 mPa·s
313.26 K, 49800 kPa	–	26.84 mPa·s
313.26 K, 49830 kPa	–	27.18 mPa·s
313.26 K, 49920 kPa	–	27.22 mPa·s
313.26 K, 49950 kPa	–	26.89 mPa·s
313.26 K, 64360 kPa	–	29.73 mPa·s
313.26 K, 64840 kPa	–	30.3 mPa·s
313.26 K, 65380 kPa	–	30.08 mPa·s
313.26 K, 66900 kPa	–	30.18 mPa·s
323.15 K, 100 kPa	1099.6 kg/m3 and 1099.5 kg/m3	–
323.15 K, 590 kPa	1099.8 kg/m3	–
323.15 K, 1140 kPa	1100 kg/m3	–
323.15 K, 1600 kPa	1100.3 kg/m3	–
323.15 K, 2080 kPa	1100.5 kg/m3	–
323.15 K, 3020 kPa	1101 kg/m3	–
323.15 K, 5050 kPa	1101.9 kg/m3	–
323.15 K, 7000 kPa	1102.9 kg/m3	–
323.15 K, 9970 kPa	1104.3 kg/m3	–
323.15 K, 14870 kPa	1106.7 kg/m3	–
323.15 K, 19780 kPa	1108.9 kg/m3	–
323.15 K, 24700 kPa	1111.2 kg/m3	–
323.15 K, 29650 kPa	1113.3 kg/m3	–
323.15 K, 34470 kPa	1115.4 kg/m3	–
323.15 K, 39340 kPa	1117.5 kg/m3	–
323.15 K, 44250 kPa	1119.6 kg/m3	–
323.15 K, 49170 kPa	1121.6 kg/m3	–
323.15 K, 54080 kPa	1123.5 kg/m3	–
323.15 K, 58970 kPa	1125.5 kg/m3	–
323.15 K, 63800 kPa	1127.3 kg/m3	–
323.15 K, 68780 kPa	1129.2 kg/m3	–
333.15 K, 100 kPa	1091.7 kg/m3	–
333.15 K, 660 kPa	1092 kg/m3	–
333.15 K, 1110 kPa	1092.2 kg/m3	–
333.15 K, 1600 kPa	1092.5 kg/m3	–
